The values that follow come from patent publication US20180008587A1, “THIOHYDANTOIN ANDROGEN RECEPTOR ANTAGONISTS FOR THE TREATMENT OF CANCER” (Jaressen Pharmaceutica NV, priority 2016, published 2018).

Molecules are shown by their SMILES. Residue numbers refer to the chain shown, from its start. Where two headings read alike, the source gives them in different places.

What all share (type): cell-based
Assay [1] has as its target T1, F876L mutant Androgen Receptor (AR-F876L) (Homo sapiens, UniProt P10275, F877L).
T1 construct: expressed in transfected cells; host or cells: LNCaP (LNCaP F876L)
T1 sequence (P10275 1-920 F877L): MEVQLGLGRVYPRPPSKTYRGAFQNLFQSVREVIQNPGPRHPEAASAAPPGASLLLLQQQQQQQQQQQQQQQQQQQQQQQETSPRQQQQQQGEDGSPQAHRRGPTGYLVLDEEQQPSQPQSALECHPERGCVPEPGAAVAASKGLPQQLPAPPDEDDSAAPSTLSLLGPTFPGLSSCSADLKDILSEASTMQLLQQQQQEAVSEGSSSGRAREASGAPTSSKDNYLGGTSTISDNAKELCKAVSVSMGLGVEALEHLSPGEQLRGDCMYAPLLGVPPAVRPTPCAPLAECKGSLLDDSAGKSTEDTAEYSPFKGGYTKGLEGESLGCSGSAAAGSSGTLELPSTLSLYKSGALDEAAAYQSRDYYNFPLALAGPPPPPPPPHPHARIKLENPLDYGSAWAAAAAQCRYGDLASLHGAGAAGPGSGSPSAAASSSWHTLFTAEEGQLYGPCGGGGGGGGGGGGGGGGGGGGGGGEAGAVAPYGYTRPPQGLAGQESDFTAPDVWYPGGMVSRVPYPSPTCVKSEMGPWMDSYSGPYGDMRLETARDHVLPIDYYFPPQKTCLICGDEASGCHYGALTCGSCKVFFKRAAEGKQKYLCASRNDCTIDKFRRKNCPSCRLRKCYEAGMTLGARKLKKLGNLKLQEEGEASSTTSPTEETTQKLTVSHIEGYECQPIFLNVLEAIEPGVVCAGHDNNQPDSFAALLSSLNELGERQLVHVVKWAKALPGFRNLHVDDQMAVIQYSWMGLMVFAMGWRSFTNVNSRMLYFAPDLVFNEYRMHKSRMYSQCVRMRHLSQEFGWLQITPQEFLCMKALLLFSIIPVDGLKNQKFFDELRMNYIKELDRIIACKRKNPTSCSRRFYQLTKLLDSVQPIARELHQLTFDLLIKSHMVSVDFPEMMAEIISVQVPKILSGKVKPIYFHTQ
The experiment in a line: LNCaP-AR-F876L AG reporter assay (ARE firefly luciferase, agonist mode). The conditions noted are these: for Emax: read-out: LNCaP-AR-F876L AG MAX % Stim. The procedure, abridged:
(§1)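 Cells: stable LNCaP pools, AR-wt or AR-F876L, in charcoal-stripped serum. Agonist challenge for antagonist mode was 400 pM (WT) and 600 pM (F876L). Luminescence was measured after 20-24 h incubation.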
(A reporter such as luciferase makes a cellular process visible.)

In assay [2] the target is T2, wild-type Androgen Receptor (AR-wt) (Homo sapiens, UniProt P10275).
T2 construct: expressed in transfected cells; host or cells: LNCaP (LNCaP AR (cs))
T2 sequence (P10275 1-920): T1 sequence (P10275 1-920 F877L) with L877F
The experiment in a line: LNCaP-AR-wt ANT reporter assay (ARE firefly luciferase, antagonist mode). Particulars: for IC50: antagonist mode, 400 pM R-1881 challenge, −Log10(IC50 [Molar]), read-out: LNCaP-AR-wt ANT pIC50 (converted); for Emax: read-out: LNCaP-AR-wt ANT MAX % Inh. In short, it runs like this:
(§2)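 Puromycin-selected pooled LNCaP populations expressing AR-wt or AR-F876L are seeded in CSS medium and treated with compound for 20-24 h at 37 °C. For antagonist testing, agonist is added at 400 pM (WT) or 600 pM (F876L). Potency values derive from least-squares fitting of luminescence RLU.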

Assay [3] deals with T2, wild-type Androgen Receptor (AR-wt). In words: LNCaP-AR-wt AG reporter assay (ARE firefly luciferase, agonist mode). The conditions noted are these: for Emax: read-out: LNCaP-AR-wt AG MAX % Stim. The procedure, abridged:
as §1

Assay [4] deals with T1, F876L mutant Androgen Receptor (AR-F876L). The experiment in a line: LNCaP-AR-F876L ANT reporter assay (ARE firefly luciferase, antagonist mode). Particulars: for Emax: read-out: LNCaP-AR-F876L ANT MAX % Inh; for IC50: read-out: LNCaP-AR-F876L ANT pIC50 (converted). In short, it runs like this:
as §2

Where [5] appears, read: agonist mode, −Log10(EC50 [Molar]), read-out: LNCaP-AR-F876L AG pEC50 (converted).
Where [6] appears, read: maximum % stimulation (agonist response) over tested concentration range.
The mark [7] stands for this setting: maximum % inhibition of R1881 control response over tested concentration range.
Setting [8] is: agonist mode, −Log10(EC50 [Molar]), read-out: LNCaP-AR-wt AG pEC50 (converted).

Take `N#Cc1cccc(N2C(=S)N(c3cnc(C#N)c(C(F)(F)F)c3)C(=O)C23CCC3)c1` [Cpd 79, 5-[8-(3-cyanophenyl)-5-oxo-7-thioxo-6,8-diazaspiro[3.4]octan-6-yl]-3-(trifluoromethyl)pyridine-2-carbonitrile]: the EC50 in assay [1] (setting [5]) and in assay [3] (setting [8]) was > 15.1 µM each time. Besides, the Emax was found to be 0.5% in assay [1] (setting [6]), 101% in assay [2] (setting [7]), 1.6% in assay [3] (setting [6]) and 101% in assay [4] (setting [7]). The figures for the IC50 in assay [2] and in assay [4] were 631 nM and 331 nM, respectively.

Regarding `N#Cc1ncc(N2C(=O)C3(CCC3)N(c3ccc(Oc4cncnc4)cc3)C2=S)cc1C(F)(F)F` [Cpd 88, 5-[5-oxo-8-(4-pyrimidin-5-yloxyphenyl)-7-thioxo-6,8-diazaspiro[3.4]octan-6-yl]-3-(trifluoromethyl)pyridine-2-carbonitrile], the EC50 in assay [1] and in assay [3] was > 15.1 µM throughout. Further, the Emax in assay [1] is 0.7%; in assay [2], 97.2%; in assay [3], 0.7%; in assay [4] it was 87.3%. Further, the IC50 in assay [2] was 631 nM; in assay [4], 138 nM.

Turning to `CNC(=O)c1ccc(N2C(=S)N(c3cnc(C#N)c(C)c3)C(=O)C2(C)C)cc1F` [Cpd 12, 4-[3-(6-cyano-5-methyl-3-pyridyl)-5,5-dimethyl-4-oxo-2-thioxo-imidazolidin-1-yl]-2-fluoro-N-methyl-benzamide], the EC50 in assay [1] and in assay [3] was > 15.1 µM each time. For the same molecule, the Emax in assay [1] was -0.3%; in assay [2] it was 98.4%; in assay [3], 0.9%; in assay [4] it was 98.7%. Moreover, the IC50 in assay [2] is 1740 nM; in assay [4], 229 nM.

In the case of `Cc1ccc(N2C(=S)N(c3cnc(C#N)c(C(F)(F)F)c3)C(=O)C2(C)C)cc1` [Cpd 110, 5-[4,4-dimethyl-5-oxo-3-(p-tolyl)-2-thioxo-imidazolidin-1-yl]-3-(trifluoromethyl)pyridine-2-carbonitrile], the EC50 in assay [1] (setting [5]) and in assay [3] (setting [8]) was > 15.1 µM each time. Moreover, the Emax in assay [1] (setting [6]) was found to be 2.6%; in assay [2] (setting [7]), 100%; in assay [3] (setting [6]) it was 1.3%; in assay [4] (setting [7]), 100%. In addition, the IC50 in assay [2] is 195 nM; in assay [4], 145 nM.

Take `COc1cc(F)ccc1N1C(=S)N(c2cnc(C#N)c(C(F)(F)F)c2)C(=O)C12CCC2` [Cpd 94, 5-[8-(4-fluoro-2-methoxy-phenyl)-5-oxo-7-thioxo-6,8-diazaspiro[3.4]octan-6-yl]-3-(trifluoromethyl)pyridine-2-carbonitrile]: the EC50 in assay [1] (setting [5]) and in assay [3] (setting [8]) was > 15.1 µM each time. For the same molecule, the Emax came to 1.5% in assay [1] (setting [6]), 95% in assay [2] (setting [7]), 6% in assay [3] (setting [6]) and 99.2% in assay [4] (setting [7]). Moreover, the figures for the IC50 in assay [2] and in assay [4] were 724 nM and 631 nM, respectively.

Turning to `Cc1cc(N2C(=O)C3(CCC3)N(c3ccc(C(=O)Nc4nccs4)c(F)c3)C2=S)cnc1C#N` [Cpd 63, 4-[6-(6-cyano-5-methyl-3-pyridyl)-5-oxo-7-thioxo-6,8-diazaspiro[3.4]octan-8-yl]-2-fluoro-N-thiazol-2-yl-benzamide], the EC50 in assay [1] and in assay [3] was > 15.1 µM in each case. For the same molecule, the Emax in assay [1] was found to be 0.3%; in assay [2], 68.6%; in assay [3] it was 0.7%; in assay [4], 83.4%. Further, the IC50 in assay [2] was 776 nM; in assay [4], 219 nM.

`CN1CCC(Oc2ccc(N3C(=S)N(c4cnc(C#N)c(C(F)(F)F)c4)C(=O)C34CCC4)cc2F)CC1` [Cpd 28, 5-[8-[3-fluoro-4-[(1-methyl-4-piperidyl)oxy]phenyl]-5-oxo-7-thioxo-6,8-diazaspiro[3.4]octan-6-yl]-3-(trifluoromethyl)pyridine-2-carbonitrile]: the EC50 in assay [1] and in assay [3] was > 15.1 µM in each case. Further, the Emax is 0% in assay [1], 99.6% in assay [2], -0.1% in assay [3] and 100% in assay [4]. Moreover, the IC50 was 501 nM in assay [2] and 204 nM in assay [4].

Regarding `N#Cc1ncc(N2C(=O)C3(CCC3)N(c3ccc(C(=O)NCc4ccco4)c(F)c3)C2=S)cc1C(F)(F)F` [Cpd 76, 4-[6-[6-cyano-5-(trifluoromethyl)-3-pyridyl]-5-oxo-7-thioxo-6,8-diazaspiro[3.4]octan-8-yl]-2-fluoro-N-(2-furylmethyl)benzamide], the EC50 in assay [1] (setting [5]) and in assay [3] (setting [8]) was > 15.1 µM in each case. Moreover, the Emax worked out at 1% in assay [1] (setting [6]), 97.8% in assay [2] (setting [7]), 1.9% in assay [3] (setting [6]) and 91.6% in assay [4] (setting [7]). The IC50 was 1450 nM in assay [2] and 851 nM in assay [4].

On to `Cc1cc(N2C(=O)C3(CCC3)N(c3ccc(-c4cncc(F)c4)cc3)C2=S)cnc1C#N` [Cpd 104, 5-[8-[4-(5-fluoro-3-pyridyl)phenyl]-5-oxo-7-thioxo-6,8-diazaspiro[3.4]octan-6-yl]-3-methyl-pyridine-2-carbonitrile], for which the EC50 in assay [1] (setting [5]) and in assay [3] (setting [8]) was > 15.1 µM in each case. The Emax is 2.2% in assay [1] (setting [6]), 99.7% in assay [2] (setting [7]), 2.7% in assay [3] (setting [6]) and 98.4% in assay [4] (setting [7]). For the same molecule, the IC50 in assay [2] is 129 nM; in assay [4], 12 nM.

For `CNC(=O)c1ccc(N2C(=S)N(c3cnc(C#N)c(C)c3)C(=O)C23CCC3)cc1OC` [Cpd 117, 4-[6-(6-cyano-5-methyl-3-pyridyl)-5-oxo-7-thioxo-6,8-diazaspiro[3.4]octan-8-yl]-2-methoxy-N-methyl-benzamide], the EC50 in assay [1] (setting [5]) and in assay [3] (setting [8]) was > 15.1 µM each time. Also, the Emax was 3.5% in assay [1] (setting [6]), 100% in assay [2] (setting [7]), 0.7% in assay [3] (setting [6]) and 96.4% in assay [4] (setting [7]). Also, the IC50 in assay [2] was 1260 nM; in assay [4] it was 288 nM.
